The NIST ThermoML archive (doi:10.1016/j.fluid.2014.01.022)
Numbers after ± are expanded uncertainties.

What was measured:
[1] = refractive index (Na D-line) (dimensionless); settings: 298.15 K; 101.3 kPa; Liquid; Standard Abbe refractometry
[2] = Liquid; for mass density: 298.15 K, 101.33 kPa, Vibrating tube method; for Normal boiling temperature: Ebulliometric method (Recirculating still)

Row | SMILES | refractive index [1] | mass density [2] | Normal boiling temperature [2]
1 | COCC(C)O (stereo not given) [1-methoxy-2-propanol] | 1.4024 ± 0.0007 | 916.5 ± 0.2 kg/m3 | 120.2 ± 1 °C
2 | COCC(C)OC(C)=O (stereo not given) [1-methoxy-2-propyl acetate] | 1.4 ± 0.0007 | 963 ± 0.2 kg/m3 | 146 ± 1 °C
3 | CO [methanol] | 1.3269 ± 0.0007 | 786.9 ± 0.2 kg/m3 | 64.6 ± 1 °C

Other lines, results leading:

Row | refractive index [1] | mass density [2] | Normal boiling temperature [2] | SMILES
4 | 1.3596 ± 0.0007 | 927.5 ± 0.2 kg/m3 | 57.2 ± 1 °C | COC(C)=O [methyl ethanoate]
5 | 1.375 ± 0.0007 | 781.4 ± 0.2 kg/m3 | 82.5 ± 1 °C | CC(C)O [propan-2-ol]
